Test results reported in patent US20200079773A1, “CARBOXYLIC ACID DERIVATIVES OF PYRIDOQUINAZOLINES USEFUL AS PROTEIN KINASE INHIBITORS” (ONCOSTELLAE, S.L., priority 2017, published 2020).

Assays:
Format in all cases: biochemical
TYK2 = biological target: T1, TYK2 (Homo sapiens, UniProt P29597); assay: Functional assay of protein kinases (Caliper mobility shift), TYK2; conditions: ATP 20 μM, 45 min incubation
T1 construct: purchased Carna Biosciences 08-147
T1 sequence (P29597 871-1187 limits assumed): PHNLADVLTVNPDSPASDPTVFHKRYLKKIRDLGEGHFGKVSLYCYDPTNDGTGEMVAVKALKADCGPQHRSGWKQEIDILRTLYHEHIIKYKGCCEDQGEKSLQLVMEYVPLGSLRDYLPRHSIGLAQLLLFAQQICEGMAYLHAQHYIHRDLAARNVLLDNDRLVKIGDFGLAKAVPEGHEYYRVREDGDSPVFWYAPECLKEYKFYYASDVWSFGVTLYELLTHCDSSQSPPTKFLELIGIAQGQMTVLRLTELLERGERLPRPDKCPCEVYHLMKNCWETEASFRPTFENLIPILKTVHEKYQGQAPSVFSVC
Method: (§1) Functional Assays of Protein Kinases
(§2) The functional assays of protein kinases were carried out in 384-well plates using a final volume of 30 μl. […] The reaction was reads in a “Caliper EzReader LabChip 3000” (Caliper, Hopkinton, Mass.) reader, based on electrophoretic mobility of the fluorescent substrate and the phosphorylated product.
(§3) The inhibition percentages were calculated by comparison between control reactions, for 100% of inhibition and reactions with only DMSO for 0% of inhibition.

JAK2 = biological target: T2, JAK2 (Homo sapiens, UniProt O60674); assay: Functional assay of protein kinases (Caliper mobility shift), JAK2; conditions: ATP 300 μM, 30 min incubation
T2 construct: purchased Carna Biosciences 08-045
T2 sequence (O60674 826-1132 limits assumed): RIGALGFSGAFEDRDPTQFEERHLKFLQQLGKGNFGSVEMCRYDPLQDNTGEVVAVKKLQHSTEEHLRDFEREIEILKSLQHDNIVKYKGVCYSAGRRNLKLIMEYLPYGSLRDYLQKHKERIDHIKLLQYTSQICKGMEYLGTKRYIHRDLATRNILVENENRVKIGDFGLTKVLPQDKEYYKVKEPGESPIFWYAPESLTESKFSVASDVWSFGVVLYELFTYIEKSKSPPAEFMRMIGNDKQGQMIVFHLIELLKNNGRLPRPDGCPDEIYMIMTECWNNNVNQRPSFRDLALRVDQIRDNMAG
Method: as §1, §2, §3

JAK3 = biological target: T3, JAK3 (Homo sapiens, UniProt P52333); assay: Functional assay of protein kinases (Caliper mobility shift), JAK3; conditions: ATP 8 μM, 30 min incubation
T3 construct: purchased Carna Biosciences 08-046
T3 sequence (P52333 795-1124 limits assumed): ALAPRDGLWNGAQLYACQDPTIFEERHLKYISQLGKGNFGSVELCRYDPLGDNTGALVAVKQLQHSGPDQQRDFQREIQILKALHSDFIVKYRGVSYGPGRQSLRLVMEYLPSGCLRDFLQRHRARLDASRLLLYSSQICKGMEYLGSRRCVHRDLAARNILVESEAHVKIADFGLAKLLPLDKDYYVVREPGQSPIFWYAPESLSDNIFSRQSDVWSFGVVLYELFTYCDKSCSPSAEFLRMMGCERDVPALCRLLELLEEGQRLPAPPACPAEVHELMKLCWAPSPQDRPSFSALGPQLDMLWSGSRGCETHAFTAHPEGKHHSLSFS
Method: as §1, §2, §3

JAK1 = biological target: T4, JAK1 (Homo sapiens, UniProt P23458); assay: Functional assay of protein kinases (Caliper mobility shift), JAK1; conditions: ATP 100 μM, 150 min incubation
T4 construct: purchased Carna Biosciences 08-144
T4 sequence (P23458 850-1154 limits assumed): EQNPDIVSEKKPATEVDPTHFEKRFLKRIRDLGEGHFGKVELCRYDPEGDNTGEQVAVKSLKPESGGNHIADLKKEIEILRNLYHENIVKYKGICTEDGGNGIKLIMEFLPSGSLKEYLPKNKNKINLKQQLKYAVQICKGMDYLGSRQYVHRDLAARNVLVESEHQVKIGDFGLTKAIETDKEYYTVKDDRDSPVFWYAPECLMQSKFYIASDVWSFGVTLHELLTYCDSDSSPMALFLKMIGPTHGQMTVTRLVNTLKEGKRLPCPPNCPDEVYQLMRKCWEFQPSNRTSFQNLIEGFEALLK
Method: as §1, §2, §3

Human MLK3 = biological target: T5, Human MLK3 (Homo sapiens, UniProt Q16584); assay: MLK3 activity inhibition test (Reaction Biology kit, 33P ATP filter assay); conditions: MBP 10 μM, ATP 10 μM
T5 construct: purchased Reaction Biology MLK3
T5 sequence (Q16584 whole entry): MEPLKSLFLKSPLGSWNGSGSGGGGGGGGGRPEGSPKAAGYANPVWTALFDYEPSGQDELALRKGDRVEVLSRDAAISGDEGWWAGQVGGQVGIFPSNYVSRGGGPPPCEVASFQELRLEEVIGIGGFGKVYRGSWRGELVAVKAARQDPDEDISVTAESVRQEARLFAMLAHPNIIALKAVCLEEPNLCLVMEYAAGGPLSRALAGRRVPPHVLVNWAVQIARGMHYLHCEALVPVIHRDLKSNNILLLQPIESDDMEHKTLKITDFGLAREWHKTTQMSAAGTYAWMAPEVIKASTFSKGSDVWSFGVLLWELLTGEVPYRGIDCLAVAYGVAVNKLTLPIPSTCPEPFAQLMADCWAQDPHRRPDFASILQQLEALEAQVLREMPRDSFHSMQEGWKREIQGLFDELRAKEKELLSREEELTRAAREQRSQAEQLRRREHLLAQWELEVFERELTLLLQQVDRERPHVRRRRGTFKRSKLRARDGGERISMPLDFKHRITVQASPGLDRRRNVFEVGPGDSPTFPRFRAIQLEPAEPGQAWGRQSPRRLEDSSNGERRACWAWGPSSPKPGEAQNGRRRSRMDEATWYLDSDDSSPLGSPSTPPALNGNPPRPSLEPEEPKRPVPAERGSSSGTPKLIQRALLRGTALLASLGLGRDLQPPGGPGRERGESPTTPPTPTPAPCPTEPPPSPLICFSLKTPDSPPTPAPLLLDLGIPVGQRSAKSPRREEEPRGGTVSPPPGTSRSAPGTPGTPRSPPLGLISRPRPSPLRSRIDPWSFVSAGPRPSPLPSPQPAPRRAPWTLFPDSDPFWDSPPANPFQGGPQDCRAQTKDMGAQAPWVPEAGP
Method: MLK3 Activity Inhibition Test
Activity test was carried out using the kit from Reaction Biology (CAT #: MLK3). The test uses enzyme Human MLK3 and substrates are MBP (Myelin Basic Protein, HGNC ID:6925) 10 μM and ATP 10 μM. Other reagents are the following: Base Reaction buffer; 20 mM Hepes (pH 7.5), 10 mM MgCl2, 1 mM EGTA, 0.02% Brij35, 0.02 mg/ml BSA, 0.1 mM Na3VO4, 2 mM DTT, 1% DMSO.
The reaction was carried out following the instructions of manufacturer. Briefly, kinase/substrate pairs were prepared in reaction buffer. Compounds were delivered into the reaction, followed 20 minutes later by addition of a mixture of ATP (Sigma, St. Louis Mo.) and ^33P ATP (Perkin Elmer, Waltham Mass.) to a final concentration of 10 μM. Reactions were carried out at room temperature for 120 min, followed by spotting of the reactions onto P81 ion exchange filter paper (Whatman Inc., Piscataway, N.J.). Unbound phosphate was removed by extensive washing of filters in 0.75% phosphoric acid. […] IC50 values and curve fits were obtained using Prism (GraphPad Software).

| IC50 (TYK2) | IC50 (JAK2) | IC50 (JAK3) | IC50 (JAK1) | IC50 (Human MLK3) | SMILES |
| --- | --- | --- | --- | --- | --- |
| 100 to 1000 nM | ≥ 1000 nM | 100 to 1000 nM | ≥ 1000 nM |  | O=C(NC1CCC(C(=O)O)CC1)c1cccn2c(=O)c3cc(Br)ccc3nc12 (stereo not shown) [Example 24, 4-(2-bromo-11-oxo-11H-pyrido[2,1-b]quinazoline-6-carboxamido)cyclohexane-1-carboxylic acid] |
| < 100 nM | ≥ 1000 nM | 100 to 1000 nM | ≥ 1000 nM | ≥ 1000 nM | Cc1cc(C(=O)NC2CCC(C(=O)O)CC2)c2nc3ccccc3c(=O)n2c1 (stereo not shown) [Example 10, 4-(8-methyl-11-oxo-11H-pyrido[2,1-b]quinazoline-6-carboxamido)cyclohexane-1-carboxylic acid] |
| 100 to 1000 nM | ≥ 1000 nM | 100 to 1000 nM | ≥ 1000 nM | < 100 nM | O=C(NC12CCC(C(=O)O)(CC1)CC2)c1cccn2c(=O)c3cc(C4CC4)ccc3nc12 [Example 6, 4-(2-cyclopropyl-11-oxo-11H-pyrido[2,1-b]quinazoline-6-carboxamido)bicyclo[2.2.2]octane-1-carboxyli acid] |
| < 100 nM | ≥ 1000 nM | < 100 nM | ≥ 1000 nM | < 100 nM | O=C(N[C@H]1CC[C@@H](C(=O)O)CC1)c1cccn2c(=O)c3cc(-c4ccncc4)ccc3nc12 [Example 17, (1S,4S)-4-(11-oxo-2-(pyridin-4-yl)-11H-pyrido[2,1-b]quinazoline-6-carboxamido)cyclohexane-1-carboxylic acid] |
| 100 to 1000 nM | ≥ 1000 nM | 100 to 1000 nM | ≥ 1000 nM |  | O=C(NC12CCC(C(=O)O)(CC1)C2)c1cccn2c(=O)c3cc(C4CC4)ccc3nc12 [Example 7, 4-(2-cyclpropyl-11-oxo-11H-pyrido[2,1-b]quinazoline-6-carboxamido)bicyclo[2.2.1]heptane-1-carboxylic acid] |
| ≥ 1000 nM | ≥ 1000 nM | 100 to 1000 nM | ≥ 1000 nM | ≥ 1000 nM | N#Cc1ccc2nc3c(C(=O)NC4CCC(C(=O)O)CC4)cccn3c(=O)c2c1 (stereo not shown) [Example 21, 4-(2-cyano-11-oxo-11H-pyrido[2,1-b]quinazoline-6-carboxamido)cyclohexane-1-carboxylic add] |
| < 100 nM | ≥ 1000 nM | < 100 nM | ≥ 1000 nM | < 100 nM | O=C(N[C@H]1CC[C@@H](C(=O)O)CC1)c1cccn2c(=O)c3cc(-c4ccc(F)cc4)ccc3nc12 [Example 16, (1S,4S)-4-(2-(4-fluorophenyl)-11-oxo-11H-pyrido[2,1-b]quinazoline-6-carboxamido)cyclohexane-1-carboxylic acid] |
| < 100 nM | ≥ 1000 nM | < 100 nM | ≥ 1000 nM |  | O=C(N[C@H]1CC[C@@H](C(=O)O)CC1)c1cccn2c(=O)c3cc(-c4ccccc4)ccc3nc12 [Example 15, (1S,4S)-4-(11-oxo-2-phenyl-11H-pyrido[2,1-b]quinazoline-6-carboxamido)cyclohexane-1-carboxylic acid] |
| 100 to 1000 nM | ≥ 1000 nM | 100 to 1000 nM | ≥ 1000 nM |  | O=C(NC1CCC(C(=O)O)CC1)c1cccn2c(=O)c3ccccc3nc12 (stereo not shown) [Example 12, 4-(11-oxo-11H-pyrido[2,1-b]quinazoline-6-carboxamido)cyclohexane-1-carboxylic acid] |
| 100 to 1000 nM | ≥ 1000 nM | 100 to 1000 nM | ≥ 1000 nM | 100 to 1000 nM | O=C(N[C@H]1CC[C@@H](C(=O)O)CC1)c1cccn2c(=O)c3ccccc3nc12 [Example 13, (1S,4S)-4-(11-oxo-11H-pyrido[2,1-b]quinazoline-6-carboxamido)cyclohexane-1-carboxylic add] |
| 100 to 1000 nM | ≥ 1000 nM | ≥ 1000 nM | ≥ 1000 nM |  | Cc1cc(C(=O)N[C@H]2CC[C@@H](C(=O)O)CC2)c2nc3ccccc3c(=O)n2c1 [Example 11, (1S,4S)-4-(8-methyl-11-oxo-11H-pyrido[2,1-b]quinazoline-6-carboxamido)cyclohexane-1-carboxylic acid] |
| 100 to 1000 nM |  | < 100 nM |  | < 100 nM | COc1ccc2nc3c(C(=O)NC4CCC(C(=O)O)CC4)cccn3c(=O)c2c1 (stereo not shown) [Example 20, 4-(2-methoxy-11-oxo-11H-pyrido[2,1-b]quinazoline-6-carboxamido)cyclohexane-1-carboxylic acid] |
| < 100 nM | ≥ 1000 nM | < 100 nM | ≥ 1000 nM | < 100 nM | O=C(N[C@H]1CC[C@@H](C(=O)O)CC1)c1cccn2c(=O)c3cc(N4CCOCC4)ccc3nc12 [Example 14, (1S,4S)-4-(2-morpholino-11-oxo-11H-pyrido[2,1-b]quinazoline-6-carboxamido)cyclohexane-1-carboxylic acid] |

| SMILES | IC50 (TYK2) | IC50 (JAK2) | IC50 (JAK3) | IC50 (JAK1) | IC50 (Human MLK3) |
| --- | --- | --- | --- | --- | --- |
| O=C(N[C@H]1CC[C@@H](C(=O)O)CC1)c1cccn2c(=O)c3cc(C4CC4)ccc3nc12 [Example 3, (1S,4S)-4-(2-cyclopropyl-11-oxo-11H-pyrido[2,1-b]quinazoline-6-carboxamido)cyclohexane-1-carboxylic acid] | < 100 nM | ≥ 1000 nM | < 100 nM | ≥ 1000 nM | < 100 nM |
| O=C(NC1CCC(C(=O)O)CC1)c1cccn2c(=O)c3cc(C4CC4)ccc3nc12 [Example 4, (1R,4R)-4-(2-cyclopropyl-11-oxo-11H-pyrido[2,1-b]quinazoline-6-carboxamido)cyclohexane-1-carboxylic acid] | ≥ 1000 nM | ≥ 1000 nM | 100 to 1000 nM | ≥ 1000 nM |  |
